In brackets after ≈: the same amount, converted by molar mass. Where two headings read alike, the source gives them in different places. Residues, ends and D or L forms follow the SMILES beside them. Some results are limits rather than exact numbers.

One assay concerns Cryptococcus neoformans. The assay can be described thus: microbe, parasite or virus in culture. The note with it: 72 h, read-out: Minimum inhibitory concentration (MIC). It is filed as cell-based. The procedure:
(§1) The anti- fungal activity of peptides was performed according to the standard micro broth dilution technique as per NCCLS guidelines. These plates were incubated in a moist chamber at 35 °C, and an absorbance at 492 nm was recorded on a VersaMax microplate reader after 48 h for C. albicans ATCC 10231 and C. parapsilosis ATCC 22019 and 72 h for C. neoformans.

The subject of assay [1] is Candida parapsilosis (ATCC 22019). The assay is described as follows: microbe, parasite or virus in culture. It is filed as cell-based. The note with it: read-out: Minimum inhibitory concentration (MIC). The procedure: as §1
In assay [2] the test system is Candida albicans (ATCC 10231). The assay can be described thus: microbe, parasite or virus in culture. It counts as cell-based. Conditions: read-out: Minimum inhibitory concentration (MIC). The procedure: as §1
In assay [3] the test system is Sporothrix schenckii (Patient isolates). The assay is described as follows: microbe, parasite or virus in culture. It is filed as cell-based. Conditions: read-out: Minimum inhibitory concentration (MIC).
Assay [4] relates to Bacillus subtilis (ATCC 6633). The assay can be described thus: microbe, parasite or virus in culture. It counts as cell-based. The note with it: read-out: Minimum inhibitory concentration (MIC). The procedure:
(§2) Antibacterial assay against various Gram-positive and Gram-negative strains of bacteria was performed by the serial two-fold dilution method according to the previously reported procedure, [36]. The antibacterial assays were repeated thrice and the averages of these MIC values were reported.

Assay [5] deals with Staphylococcus aureus (BAA-44)MDR. The assay is described as follows: microbe, parasite or virus in culture. It counts as cell-based. Conditions: BAA44; Staphylococcus aureus (BAA-44) MDR; averages of three repeats; read-out: Minimum inhibitory concentration (MIC). The procedure: as §2
Assay [6] relates to Staphylococcus aureus (ATCC 700698 MRSA). The assay can be described thus: microbe, parasite or virus in culture. The note with it: read-out: Minimum inhibitory concentration (MIC). It is filed as cell-based. The procedure: as §2
For assay [7], the system named is Staphylococcus aureus (ATCC 700699 MRSA). The assay can be described thus: microbe, parasite or virus in culture. The note with it: read-out: Minimum inhibitory concentration (MIC). It counts as cell-based. The procedure:
as §2

The subject of assay [8] is Staphylococcus aureus (ATCC 29213). The assay is described as follows: microbe, parasite or virus in culture. The note with it: read-out: Minimum inhibitory concentration (MIC). It is filed as cell-based. The procedure: as §2
Assay [9] has as its system Pseudomonas aeruginosa (ATCC BAA-427). The assay is described as follows: microbe, parasite or virus in culture. It is filed as cell-based. The note with it: read-out: Minimum inhibitory concentration (MIC). The procedure: as §2
The test system of assay [10] is Staphylococcus aureus (ATCC 25923). The assay is described as follows: microbe, parasite or virus in culture. It is filed as cell-based. Conditions: read-out: Minimum inhibitory concentration (MIC). The procedure:
as §2

For assay [11], the system named is Escherichia coli (ATCC 9637). The assay can be described thus: microbe, parasite or virus in culture. Conditions: read-out: Minimum inhibitory concentration (MIC). It is filed as cell-based. The procedure:
as §2

Assay [12] relates to Escherichia coli (ATCC 25922). The assay is described as follows: microbe, parasite or virus in culture. It is filed as cell-based. Conditions: read-out: Minimum inhibitory concentration (MIC). The procedure:
as §2

The subject of assay [13] is Klebsiella pneumoniae (ATCC 27736). The assay can be described thus: microbe, parasite or virus in culture. It is filed as cell-based. Conditions: read-out: Minimum inhibitory concentration (MIC). The procedure: as §2
For assay [14], the system named is Staphylococcus aureus (ATCC 33592) Methicillin resistant Genatmicin resistant. The assay is described as follows: microbe, parasite or virus in culture. It counts as cell-based. The note with it: read-out: Minimum inhibitory concentration (MIC). The procedure: as §2
Assay [15] deals with E. coli ATCC 25922. It is filed as cell-based, Escherichia coli. The note with it: ATCC 25922, 18 h. The procedure: (§3) E. coli ATCC25922 was grown to 10^6 CFU/ml in fresh MH broth with various divalent and monovalent salts at their physiological concentrations. Serial dilutions of chrysophsin-1 and its variants prepared with the same MH broth were added to the E. coli ATCC 25922 suspensions. The bacteria were incubated at 37 °C in a shaking incubator for 18 h and the MIC values of individual peptides against E. coli ATCC 25922 were determined. Thermal tolerance of Chrysophsin-1 and its variants was checked by incubating the peptides at 4 °C, 60 °C and 90 °C for 1 h prior to MIC determination. The antibacterial activity in presence of serum was carried out by adding a final concentration of 10% fetal bovine serum in the assay diluents containing 0.4% BSA, 0.02% glacial acetic acid. The subsequent steps in both the experiments were consistent with the MIC determination method.

For the next assay, the system named is E. coli (ATCC 25922). It counts as cell-based, Escherichia coli. The note with it: ATCC 25922, 1 h. The procedure: as §3
In another assay the test system is S. aureus (ATCC 25923). It is filed as cell-based, Staphylococcus aureus. Conditions: ATCC 25923, 1 h. The procedure:
as §3

Assay [16] has as its system E. coli ATCC 25922. The assay is described as follows: Synergy with conventional antibiotics, checkerboard titration. It is filed as cell-based, Escherichia coli. The procedure:
The checkerboard titration method was followed to check the synergy of peptides with other antibiotics. First, 2-fold serial dilutions of the antibiotics and antimicrobial peptides were prepared. Subsequently, 50 μl each of different concentrations of antibiotics and of antimicrobial peptides was mixed and added into 100 μl of log phase bacteria culture in a 96-well plate. The plates were then incubated at 37 °C for 24 h. The fractional inhibitory concentration (FIC) index (FICI) was calculated as follows[39]: FICI=(MICofdrugAincombination)/(MICofdrugAalone)+(MICofdrugBincombination)/(MICofdrugB): FICI < 0.5 is considered to indicate synergy; 0.5 < FICI < 1.0 is considered additive; 1.0 < FICI < 4.0 is considered indifferent; and FICI > 4.0 is considered antagonism.

The mark [17] stands for this setting: ATCC6633, Bacillus subtilis (ATCC 6633), averages of three repeats.
The mark [18] stands for this setting: Staphylococcus aureus (ATCC 700698 MRSA), averages of three repeats.
Setting [19] is: Staphylococcus aureus (ATCC 700699 MRSA), averages of three repeats.
The mark [20] stands for this setting: ATCC29213, Staphylococcus aureus (ATCC 29213), averages of three repeats.
Where [21] appears, read: ATCCBAA427, Pseudomonas aeruginosa (ATCC BAA-427), averages of three repeats.
Setting [22] is: ATCC25923, Staphylococcus aureus (ATCC 25923), averages of three repeats.
Where [23] appears, read: ATCC9637, Escherichia coli (ATCC 9637), averages of three repeats.
The mark [24] stands for this setting: ATCC25922, Escherichia coli (ATCC 25922), averages of three repeats.
Where [25] appears, read: ATCC27736, Klebsiella pneumoniae (ATCC 27736), averages of three repeats.
Where [26] appears, read: ATCC33592, Staphylococcus aureus (ATCC 33592), methicillin and gentamicin resistant, averages of three repeats.

Consider `OC(Cn1cncn1)(Cn1cncn1)c1ccc(F)cc1F` [Fluconazole, reference compound], for which the MIC was found to be 6.53 µM (≈ 2 µg/mL) with Cryptococcus neoformans (Cryptococcus neoformans, NCCLS micro broth dilution, 35 °C, absorbance 492 nm); 6.53 µM (≈ 2 µg/mL) in assay [1] (ATCC22019, Candida parapsilosis (ATCC 22019), NCCLS micro broth dilution, 35 °C, 48 h, absorbance 492 nm); 3.26 µM (≈ 0.998 µg/mL) in assay [2] (ATCC10231, Candida albicans (ATCC 10231), NCCLS micro broth dilution, 35 °C, 48 h, absorbance 492 nm); 6.53 µM (≈ 2 µg/mL) in [3] (Sporothrix schenckii (patient isolates), NCCLS micro broth dilution, 35 °C).

`CNC(C)C1CCC(N)C(OC2C(N)CC(N)C(OC3OCC(C)(O)C(NC)C3O)C2O)O1` (centres unmarked) [Gentamicin, reference compound]: the MIC in [4] (setting [17]) was 1.2 µM (≈ 0.573 µg/mL); in [5] it was more than 86.8 µM; in assay [6] (setting [18]), more than 86.8 µM; in assay [7] (setting [19]), more than 86.8 µM; in [8] (setting [20]), 1.35 µM (≈ 0.645 µg/mL); in assay [9] (setting [21]), 1.35 µM (≈ 0.645 µg/mL). Also, the MIC is 0.67 µM (≈ 0.32 µg/mL) in assay [10] (setting [22]); 5 µM (≈ 2.39 µg/mL) in [11] (setting [23]); 2.5 µM (≈ 1.19 µg/mL) in assay [12] (setting [24]); 1.35 µM (≈ 0.645 µg/mL) in assay [13] (setting [25]); more than 86.8 µM in assay [14] (setting [26]).

Regarding `CCn1cc(C(=O)O)c(=O)c2cc(F)c(N3CCNCC3)cc21` [Norfloxacin, reference compound], the MIC in assay [4] (setting [17]) was 1.2 µM (≈ 0.383 µg/mL); in assay [5], 39.1 µM (≈ 12.5 µg/mL); in assay [6] (setting [18]), more than 156 µM; in [7] (setting [19]) it was more than 156 µM; in assay [8] (setting [20]), 2.44 µM (≈ 0.779 µg/mL); in assay [9] (setting [21]) it was 1.22 µM (≈ 0.39 µg/mL). For the same compound, the MIC amounted to 1.22 µM (≈ 0.39 µg/mL) in [10] (setting [22]); 0.15 µM (≈ 0.0479 µg/mL) in assay [11] (setting [23]); 0.3 µM (≈ 0.0958 µg/mL) in assay [12] (setting [24]); 0.15 µM (≈ 0.0479 µg/mL) in [13] (setting [25]); 1.22 µM (≈ 0.39 µg/mL) in assay [14] (setting [26]).

`CC[C@H](C)[C@H](NC(=O)[C@H](C)NC(=O)CNC(=O)[C@H](CCCCN)NC(=O)[C@@H](NC(=O)[C@H](CC(C)C)NC(=O)[C@H](Cc1c[nH]c2ccccc12)NC(=O)CNC(=O)[C@H](Cc1ccccc1)NC(=O)[C@@H](N)Cc1ccccc1)[C@@H](C)CC)C(=O)N[C@@H](Cc1c[nH]cn1)C(=O)N[C@@H](C)C(=O)NCC(=O)N[C@@H](CCCCN)C(=O)N[C@@H](C)C(=O)N[C@H](C(=O)N[C@@H](Cc1c[nH]cn1)C(=O)N1CCC[C@H]1C(=O)N[C@@H](CC(C)C)C(=O)N[C@H](C(=O)N[C@@H](Cc1c[nH]cn1)C(=O)N[C@@H](CCCNC(=N)N)C(=O)N[C@@H](CCCNC(=N)N)C(=O)N[C@@H](CCCNC(=N)N)C(=O)N[C@@H](Cc1c[nH]cn1)C(N)=O)[C@@H](C)CC)[C@@H](C)CC` [Peptide G18P-Chr-1] (H-FFGWLIKGAIHAGKAIHPLIHRRRH-NH2): the “Antibacterial activity (MIC) in the presence of 10% FBS” value with E. coli ATCC 25922 [15] turned out to be 17.2 µM. Besides, in the assay on E. coli ATCC 25922 [15], the “Antibacterial activity (MIC) in the presence of FeCl3” value was 4.1 µM. Besides, the “Antibacterial activity (MIC) in the presence of KCl” value with E. coli ATCC 25922 [15] is 4.3 µM. In the assay on E. coli ATCC 25922 [15], the “Antibacterial activity (MIC) in the presence of MgCl2” value came to 8.6 µM. Also, the “Antibacterial activity (MIC) in the presence of NH4Cl” value with E. coli ATCC 25922 [15] was 4.3 µM. Moreover, the “Antibacterial activity (MIC) in the presence of NaCl” value in the assay with E. coli ATCC 25922 [15] amounted to 4.3 µM. Further, the “Antibacterial activity (MIC) after incubating peptide at 4 °C” value in the assay with E. coli (ATCC 25922) and with S. aureus (ATCC 25923) was 3 µM each time. The “Antibacterial activity (MIC) after incubating peptide at 60 °C” value in the assay on E. coli (ATCC 25922) was 8.3 µM; in the assay with S. aureus (ATCC 25923), 33 µM. For the same compound, the results for the “Antibacterial activity (MIC) after incubating peptide at 90 °C” value with E. coli (ATCC 25922) and in the assay on S. aureus (ATCC 25923) were 17.2 µM and 33 µM, respectively. The MIC in the assay with Cryptococcus neoformans amounted to 13.6 µM (≈ 39.9 µg/mL); in [1] (ATCC 22019, 48 h), 13.6 µM (≈ 39.9 µg/mL); in assay [2] (ATCC 10231, 48 h), 13.6 µM (≈ 39.9 µg/mL); in assay [3] (48 h), 27.2 µM (≈ 79.7 µg/mL); in assay [4] (ATCC 6633) it was 3 µM (≈ 8.79 µg/mL); in assay [6] (ATCC 700698) it was 3 µM (≈ 8.79 µg/mL). Moreover, the MIC in assay [7] (ATCC 700699) stood at 3 µM (≈ 8.79 µg/mL); in assay [8] (ATCC 29213) it was 6.8 µM (≈ 19.9 µg/mL); in assay [9] (ATCC BAA-427), 6.8 µM (≈ 19.9 µg/mL); in assay [10] (ATCC 25923), 3 µM (≈ 8.79 µg/mL); in [11] (ATCC 9637) it was 3 µM (≈ 8.79 µg/mL); in assay [12] (ATCC 25922), 3 µM (≈ 8.79 µg/mL). The MIC in [13] (ATCC 27736) stood at 13.6 µM (≈ 39.9 µg/mL); in assay [14] (ATCC 33592), 1.6 µM (≈ 4.69 µg/mL). In addition, the “interaction of peptide with chloramphenicol (by FICI)” value with E. coli ATCC 25922 [16] was “additivity”.

The values are drawn from PMC5469811, “Identification of GXXXXG motif in Chrysophsin-1 and its implication in the design of analogs with cell-selective antimicrobial and anti-endotoxin activities” (Scientific Reports, 2017).
